Patent publication US20130072517A1 (Avanir Pharmaceuticals, Inc., priority 2002, published 2013)

Assays:
[1] = test system: ALS subjects with pseudobulbar affect; test: Clinical Study #4: CNS-LS score (primary efficacy); type: in vivo, human; settings: for Difference vs 30DM/30Q, mean difference in the CNS-LS reduction: controlling for baseline CNS-LS and study site
Source text: This was a multicenter, randomized, double-blind, controlled, parallel-group study. All study drugs were self-administered orally every twelve hours for twenty-eight days. The study included a screening visit and three other clinic visits on Days 1, 15, and 29. Day 29 was the last day the subject was on study and could occur anywhere between the morning of Day 26 and the morning of Day 32.
Subjects with clinically diagnosed pseudobulbar affect were screened for general health within four weeks before entry into the study. All eligible subjects had attained a score of 13 or above on the Center for Neurologic Study-Lability Scale (CNS-LS) at the clinic visit on Day 1.
(§1) Diary cards were collected on Day 15 and at the time of study completion.
Subjects completed the CNS-LS questionnaire and visual analog scales assessing quality of life (QOL) and quality of relationships (QOR) every two weeks (Days 1, 15, and 29) during the treatment period. A clinical psychologist, or other approved clinician, administered the Hamilton Rating Scale for Depression (HRSD) at the Screening Visit and on Day 29. Safety was evaluated on Day 15 and Day 29 by examining adverse events, results of physical examinations, vital signs, clinical laboratory values, and resting electrocardiograms (ECGs). In addition to blood samples taken to provide clinical laboratory data, blood was also taken for pharmacokinetic analysis and CYP2D6 genotyping. Each subject completed a diary in which the number of episodes experienced, medications taken, and any adverse events were recorded daily.
(§2) The primary efficacy variable was the CNS-LS score. All efficacy variables involving a change were determined by the baseline score being subtracted from the mean of the non-missing scores on Days 15 and 29. The secondary efficacy variables were laughing/crying episodes, QOL scores, and QOR scores. […]
The CNS-LS questionnaire used to assess primary efficacy is a seven-item self-report measure that provides a score for total pseudobulbar affect; it required approximately five minutes for the subject to complete. The range of possible scores was 7 to 35. […] This questionnaire is the only instrument for the measurement of pseudobulbar affect validated for use with ALS subjects.
The primary efficacy analysis was the change from baseline in CNS-LS scores, adjusted for center and baseline CNS-LS score. The descriptive statistics for the ITT Population are in Table 29.
These distributions have not been adjusted for baseline scores or for study site. […] As prospectively specified in the protocol, the differences in mean improvement in CNS-LS scores, adjusted for center and baseline CNS-LS scores, were analyzed by using linear regression according to the ANCOVA method of Frison and Pocock.

[2] = Clinical Study #2: plasma pharmacokinetics of dextromethorphan, dextrorphan and quinidine, single and multiple dose; settings: for AUC(0-t) / Cmax / half-life / Tmax: human, in vivo, mean, 30 mg DM HBr/25 mg Q sulfate capsule every 12 hours; for AUC(0-t): AUC (0-12) (plasma); for Cmax: Cmax (plasma); for half-life: T ½ el (plasma); for Tmax: Tmax (plasma)
Method: Descriptive statistics for each parameter, including mean, median, standard deviation, coefficient of variation, N, minimum, and maximum were calculated for all of the subjects by Day. In addition, descriptive statistics were presented by the subgroups: extensive metabolizer (EM) and poor metabolizer (PM).
The ANOVA model included the factors group (EM or PM), subject within group, day, and the interaction term day by group. The group effect was tested using the subject within group mean square, and all other main effects were tested using the residual error (error mean square). In addition, tests of the hypotheses Day 1=Day 4, Day 1=Day 8, and Day 4=Day 8 were performed.

[3] = test system: ALS subjects with pseudobulbar affect; test: Clinical Study #4: laughing/crying episode counts (diary); type: in vivo, human
Method: as §1, §2
Secondary efficacy was assessed by using two, 10-cm visual analog scales (VAS). One scale asked subjects to rate how much uncontrollable laughter, tearfulness, or anger had affected the overall quality of their life during the past week, and one scale asked subjects to rate how much uncontrollable laughter, tearfulness, or anger had affected the quality of their relationships with others during the past week. Each scale required less than one minute to complete. The subjects recorded episodes of pathological laughing and crying in a diary daily.
An analysis of secondary efficacy data was conducted.

[4] = Clinical Study #4: concentrations of DM, DX and Q in plasma on Day 29; type: in vivo, human; settings: blood collection within 8 hours of last dose
Method: Values were obtained for systolic and diastolic blood pressure, heart rate, and respiration rate on the screening visit and all other study visits. All values outside the pre-defined ranges were flagged in the subject data listings. Electrocardiography (twelve lead) was used to obtain ventricular rate (VR), QT, Q-Tc intervals, […] (PR), and QRS duration. A blood sample (10 mL whole blood) was taken from each subject at the Screening Visit for CYP2D6 genotyping to determine which subjects were poor metabolizers of DM and which were extensive metabolizers. Blood samples were taken on Day 29 for the determination of concentrations of DM, DX, and Q in plasma. The relationship between the concentration of drug in plasma and changes in CNS-LS scores was determined, and the effect of the CYP2D6 genotype on this relationship was evaluated.
Q in this combination product inhibits the rapid first-pass metabolism of DM.

[5] = ITT population, mean of scores on Day 15 and Day 29 minus baseline (Day 1) score
[6] = ITT population, diary, weighted by days in the study
[7] = proportional-variance (constant dispersion) negative binomial model
[8] = quadratic-variance (mean dispersion) negative binomial model

## COc1ccc2c(c1)[C@]13CCCCC1[C@H](C2)N(C)CC3 (single isomer, unassigned; (+)) [Dextromethorphan, (+)-3-methoxy-N-methylmorphinan]
[1]; Efficacy Evaluable Population (n = 101)
  Difference vs 30DM/30Q, mean difference in the CNS-LS reduction: −3.78
[1]; ITT Population (n = 125)
  Difference vs 30DM/30Q, mean difference in the CNS-LS reduction: −3.29
[1]; [5]
  Change in CNS-LS scores, Max: 2.0
  Change in CNS-LS scores, Mean: −5.12
  Change in CNS-LS scores, Median: −4.50
  Change in CNS-LS scores, Min: −25.00
[1]; Safety Population (n = 136)
  Difference vs 30DM/30Q, mean difference in the CNS-LS reduction: −3.09
[2]; Day 1, All Subjects
  AUC(0-t): 148 ng·h/mL
  Cmax: 17.3 ng/mL
  Tmax: 7.11 h
[2]; Day 1, EM
  AUC(0-t): 133 ng·h/mL
  Cmax: 15.9 ng/mL
  Tmax: 6.85 h
[2]; Day 1, PM
  AUC(0-t): 198 ng·h/mL
  Cmax: 22.3 ng/mL
  Tmax: 8 h
[2]; Day 4, All Subjects
  AUC(0-t): 886 ng·h/mL
  Cmax: 83.1 ng/mL
  Tmax: 5.55 h
[2]; Day 4, EM
  AUC(0-t): 812 ng·h/mL
  Cmax: 76.7 ng/mL
  Tmax: 5.42 h
[2]; Day 4, PM
  AUC(0-t): 1150 ng·h/mL
  Cmax: 106 ng/mL
  Tmax: 6 h
[2]; Day 8, All Subjects
  AUC(0-t): 1160 ng·h/mL
  Cmax: 105 ng/mL
  half-life: 1220 min
  Tmax: 5.77 h
[2]; Day 8, EM
  AUC(0-t): 1050 ng·h/mL
  Cmax: 95.5 ng/mL
  half-life: 788 min
  Tmax: 5.99 h
[2]; Day 8, PM
  AUC(0-t): 1530 ng·h/mL
  Cmax: 136 ng/mL
  half-life: 2520 min
  Tmax: 4.99 h
[2]; poor metabolizers
  Fold increase in AUC (0-12) from Day 1 to Day 8: 6.1 fold
[3]; ITT population, diary
  Weekly episode counts, Crying, Max: 21.00
  Weekly episode counts, Crying, Median: 0.70
  Weekly episode counts, Crying, Min: 0.00
  Weekly episode counts, Laughing, Max: 726.55
  Weekly episode counts, Laughing, Median: 2.50
  Weekly episode counts, Laughing, Min: 0.00
  Weekly episode counts, Laughing/Crying, Max: 726.55
  Weekly episode counts, Laughing/Crying, Median: 8.97
  Weekly episode counts, Laughing/Crying, Min: 0.00
[3]; [6]
  Weekly episode counts, Crying, Wtd. Mean: 4.30
  Weekly episode counts, Laughing, Wtd. Mean: 35.29
  Weekly episode counts, Laughing/Crying, Wtd. Mean: 39.58
[3]; Poisson regression model with adjustment for center
  Total episodes, times greater than in the 30DM/30Q group: 6.4
[3]; Poisson regression model, outlier omitted
  Total episodes, ratio to the 30DM/30Q group: 2.3
[3]; [7]
  Crying, estimated ratio relative to the named group: 2.0
  Laughing, estimated ratio relative to the named group: 1.4
  Total counts, estimated ratio relative to the named group: 1.7
[3]; proportional-variance negative binomial model, outlier subject omitted
  Laughing, estimated ratio relative to the named group: 1.5
[3]; [8]
  Crying rates, factor between 30DM/30Q and the named group: twice
  Laughing rates, factor between 30DM/30Q and the named group: 2.6
  Total episode rates, factor between 30DM/30Q and the named group: 2.6
[4]
  concentration of DM in plasma, Max: 15.81
  concentration of DM in plasma, Mean: 5.18
  concentration of DM in plasma, Median: 4.55
  concentration of DM in plasma, Min: 0.35
